According to publication PMC3404986, “Pyridoxal 5′-Phosphate Is a Slow Tight Binding Inhibitor of E. coli Pyridoxal Kinase” (PLoS ONE, 2012):

Tests used:
[1] = target: T1, ePL kinase (E. coli pyridoxal kinase 1, PL kinase1) (Escherichia coli, UniProt P40191); test: size-exclusion chromatography, then coupled enzymatic ADP assay of denatured complex; assay type: binding; conditions: complex from PLP 0.5 mM + MgADP 1 mM + MgCl2 0.5 mM, pH 7.5, 37°C, 1 h; ternary complex with PLP
T1 construct: gene pdxK; full length, recombinant from E. coli; wild type untagged (as previously described); K229Q His-tagged (C-terminus; pET28a NdeI/EcoRI)
Description: size-exclusion chromatography, then coupled enzymatic ADP assay of denatured complex on ePL kinase (E. coli pyridoxal kinase 1, PL kinase1)

[2] = target: T1, ePL kinase (E. coli pyridoxal kinase 1, PL kinase1); test: CD at […] nm, bound PLP removed by PLP phosphatase; assay type: binding; conditions: complex formed from PL + MgATP; 10 µM PLP phosphatase as trap, pH 7.5, 37°C; covalent, reversible aldimine; only part of the PLP released
[3] = target: T1, ePL kinase (E. coli pyridoxal kinase 1, PL kinase1); test: Sephadex G-50 spin column, absorbance of bound PLP at […] nm; conditions: PLP without nucleotide, 0.2 mM MgCl2, pH 7.5, 37°C; slow tight binding inhibitor; covalent, reversible aldimine, K229 suggested

%ADP [1]	rate of dissociation [2]	Rate of complex formation [3]	SMILES
43%			Nc1ncnc2c1ncn2[C@@H]1O[C@H](COP(=O)(O)OP(=O)(O)O)[C@@H](O)[C@H]1O [MgADP]
	0.012 min⁻¹	0.16 min⁻¹	Cc1ncc(COP(=O)(O)O)c(C=O)c1O [PLP]
